Legend:
[1] = tested on: Caenorhabditis elegans; assay: Antiparasitic activity against Caenorhabditis elegans in a 96 well microplate, movement graded 0 to 3, MIC; format: cell-based; conditions: concentration required to give Indication 2 (or 3) for caenorhabditis elegans; incubated at 20° C., observed after 24 and 48 hours
Description: (§1) Methods for determining antiparasitic effects of the compounds disclosed by the present invention are explained below.
(§2) As model insects for simple determination of antiparasitic and insecticidal activities, those insects are desired which can be easily obtained and bred in laboratories, and have no pathogenicity to a human. Caenorhabditis elegans, an unparasitic eelworm widely used in experiments of genetics, was used as a typical steam worm, and artemia salina used as feed for tropical fish and named Brine shrimp, was used instead of insects. […]
(§3) Each well of a 96 well microplate was filled with the solution of the test compound (methanol as a solvent), and the solvent was removed using a vacuum pump, then 250 μl of the assay medium was added to each wells (the assay medium was prepared by dissolving 7.5 mM sodium hydrogencarbonate, 7.5 mM potassium chloride, 7.5 mM calcium chloride dihydrate and 7.5 mM magnesium sulfate heptahydrate in distilled water and adding 0.01% of lecithin to the solution), and then the microplate was shaken using a microplate mixer for 15 minutes. […] The results were compared to those obtained without addition of the test compound, and evaluated by 4 grades. […]

[2] = tested on: artemia salina; assay: Insecticidal model activity against artemia salina (Brine shrimp) larvae in a 96 well microplate, movement graded 0 to 3, MIC; format: cell-based; conditions: concentration required to give Indication 2 (or 3) for artemia salina; incubated at 20° C., observed after 24 and 48 hours
Description: as §1, §2, §3

CCC(C)C1O[C@]2(C=C[C@@H]1C)C[C@@H]1CC(C/C=C(\C)[C@@H](OC3C[C@H](OC)[C@@H](OC4C[C@H](OC)[C@@H](O)[C@H](C)O4)[C@H](C)O3)[C@@H](C)/C=C/C=C3\COC4[C@H](O)C(C)=CC(C(=O)O1)[C@]34O)O2 (some centres unmarked) [B1a*, avermectin B1a]
C.E. minimum inhibitory concentration (MIC) [1]: 2 ng/mL
A.S. minimum inhibitory concentration (MIC) [2]: 0.5 ng/mL

From patent US7144866B2, “Avermectin derivatives” (The Kitasato Institute, priority 2000, dated 2006)
